In data set [1] the test system is MDCK-C7 cells. As to the kind of experiment: Short-circuit current (SCC) ion transport response to ADH in MDCK-C7 monolayers in Ussing chambers. In kind it is cell-based, canine. The note with it: for initial rapid transient SCC response to ADH: 18 hrs pre-incubation before ADH. How it is done: The Madin-Darby canine kidney (MDCK) cell line expresses many characteristics of the renal collecting duct. The MDCK-C7 subclone forms a high-resistance, hormone-responsive model of the principal cells, which are found in distal sections of the renal tubule. The electrophysiological technique of short-circuit current measurement has been used to examine the response to antidiuretic hormone (ADH) in the MDCK-C7 clone.
The MDCK-C7cells were grown in a 37° C. humidified incubator with a 5% CO2 and […] gas mixture. Initially the cells were grown in 75 cm^2 flasks and fed with Minimal Media with Earle's salts, non-essential amino acids and L-glutamine (MEM; Gibco/BRL, Grand Island, N.Y., USA) supplemented with 10% fetal bovine serum (Sigma), 26 mM NaHCO3 and adjusted to pH 7.0. The confluent cells were subcultured by trypsinization and the cells were seeded (5.4×10^4 cell/cm^2) onto Nucleopore polycarbonate membranes forming the bottom of Transwell chambers (Costar, Cambridge, Mass., USA). The Transwell chambers were placed in specially designed tissue culture plates to form a two compartment system in which media are added to both apical and basolateral surfaces. The media were aspirated and replaced three times per week. The cells were used between passages 73 and 96.
Nucleopore filters (4.7 cm^2) containing confluent MDCK-C7 cells (10-16 days) were removed from the Transwell chambers and clamped between the halves of an Ussing chamber (World Precision Instruments, Sarasota, Fla.). Each half of the chamber contained a tapered fluid compartment with openings for voltage electrodes (close to the epithelial membrane) and current electrodes (at the opposite end of the chamber). The fluid chamber was water jacketed to maintain constant temperature (37° C.). The cells were bathed in serum-free MEM. The media were circulated in the chambers by means of a 5%CO2/O2 gas lift. […] Transepithelial resistance was calculated by applying a 2-mV pulse across the epithelium and measuring the resultant deflection in SCC. Data from cultures were used only if they maintained a resistance >1000 W cm^2. Transepithelial resistance (an indication of cellular viability) was monitored throughout the entire duration of each electrophysiological experiment by pulsing the tissues with a 2000 μV pulse every 200 seconds. Resistance values were calculated from the resulting current deflections using Ohm's law.
The cultures were placed in the Ussing chambers and incubated under short-circuited conditions until a steady baseline transport was achieved (0.5-1 h). In the experiments to characterize the ADH-induced ion transport phenomena, the cultures were pre-incubated with the inhibitors 30 minutes prior to the addition of ADH. In the experiments with GI262570X, compound was added 18 hrs. prior to the addition of ADH. ADH was added to the serosal bathing media; amiloride was added to the apical media 30 min after ADH to determine the portion of the transport due to flux through the amiloride-sensitive Na^+ channel. The concentrations of effectors used were: ADH, 0.1 IU/ml; amiloride, 30 μM; NPPB, 500 μM; verapamil, 25 μM, and GI262570X (concentration range from 1 nM -1 μM). Each experiment was performed using matched cultures grown in parallel. The data are presented as means±SE with n indicating the number of different experiments.

Data set [2] concerns MDCK-C7 cells. Briefly: Transepithelial resistance of MDCK-C7 monolayers (indication of cellular viability). In kind it is cell-based, canine. The note with it: at concentrations >10 μM; SCC response not measurable. The method, then: Nucleopore filters (4.7 cm^2) containing confluent MDCK-C7 cells (10-16 days) were removed from the Transwell chambers and clamped between the halves of an Ussing chamber (World Precision Instruments, Sarasota, Fla.). Each half of the chamber contained a tapered fluid compartment with openings for voltage electrodes (close to the epithelial membrane) and current electrodes (at the opposite end of the chamber). The fluid chamber was water jacketed to maintain constant temperature (37° C.). The cells were bathed in serum-free MEM. The media were circulated in the chambers by means of a 5%CO2/O2 gas lift. The electrodes were connected to a voltage-clamp amplifier (Current Voltage Clamp; World Precision Instruments) for measurement of net ion flux as monitored under short-circuit conditions (SCC; short circuit current) [Ussing, 1951]. Transepithelial resistance was calculated by applying a 2-mV pulse across the epithelium and measuring the resultant deflection in SCC. Data from cultures were used only if they maintained a resistance >1000 W cm^2. Transepithelial resistance (an indication of cellular viability) was monitored throughout the entire duration of each electrophysiological experiment by pulsing the tissues with a 2000 μV pulse every 200 seconds. Resistance values were calculated from the resulting current deflections using Ohm's law.

“Also recorded” adds a separate entry of the source. Structures can show the parent of a compound that is named as a salt. Bridge positions count the residues as written; N and C are the ends. Ends that are not written are not given here.

In the case of `O=C(O)c1cc([N+](=O)[O-])ccc1NCCCc1ccccc1` [NPPB, reference compound], the “rapid transient ion transport response to ADH” value with MDCK-C7 cells [1] (500 μM, added to apical bathing medium, 30 minutes before ADH) is reported as “significantly diminish”.

In the case of `N=C(N)NC(=O)c1nc(Cl)c(N)nc1N` [amiloride, amiloride hydrochloride, reference compound], the “later sustained SCC (ion transport) response to ADH” value with MDCK-C7 cells [1] (amiloride 30 μM, apical media, hydrochloride) is “only blocks the later sustained SCC response; also recorded: decrease”.

Regarding “[arg]-vasopressin (CYFQNCPRG-NH2; disulfide 1-6; UniProt P01185 20-28, looked up) [ADH, antidiuretic hormone used to stimulate ion transport, reference compound]”, the “short circuit current response on stimulation” value in the data set on MDCK-C7 cells [1] (100 mU/ml, serosal bathing media, multiphasic response) was “rapid increase in short circuit current”.

As to `Cc1oc(-c2ccccc2)nc1CCOc1ccc(C[C@H](Nc2ccccc2C(=O)c2ccccc2)C(=O)O)cc1` [GI262570X, N-(2-benzoylphenyl)-O-[2-(5-methyl-2-phenyl-4-oxazolyl)ethyl]-L -tyrosine], the “cellular resistance of the monolayers” value with MDCK-C7 cells [2] is recorded as less than 500 ohm cm^2. Besides, in the data set with MDCK-C7 cells [1] (100 nM or 1 μM, 18 hrs pre-incubation), the “effects on the other phases of the SCC response to ADH” value is given as “no significant effects”. The “initial rapid transient SCC response to ADH” value in the data set on MDCK-C7 cells [1] (100 nM, n=4, p<0.05 vs controls) was “significantly attenuated”; with MDCK-C7 cells [1] (1 μM, n=4, p<0.01 vs controls), “significantly attenuated”. In the data set with MDCK-C7 cells [1] (-10 to 0 minutes, before ADH, 18 hrs pre-incubation), the “effect on baseline SCC” value was “no compound-related effect”. The “CFTR-mediated anion secretion in response to ADH stimulation” value in the data set with MDCK-C7 cells [1] (MDCK-C7 cells, summary statement) is “decreased”. In the data set on MDCK-C7 cells [1] (over the concentration range of 1 nM - 1 μM), the “initial rapid transient response to ADH” value is recorded as “inhibited”.

Values taken from US7767682B2, “Medicaments” (GlaxoSmithKline LLC, priority 2005, dated 2010).
